# How the values were obtained:
# [1] = tested on: GABAA receptor β3 subunit S408/9; experiment: Immunoblot of β3 S408/9 phosphorylation in hippocampal slices; type: cell-based, mouse; conditions: 100 nM
# Procedure: Asterisks represent a significant difference from control (ALLO: p<0.01, Student's t-test, n=10 slices, from 10 mice; SGE-516: p<0.05, Student's t-test, n=4 slices, from 4 mice). […] Asterisks represent a significant difference from control (ALLO: p<0.05, Student's t-test, n=8 slices; SGE-516: p<0.05, Student's t-test, n=4 slices).
# Hippocampi were dissected out of acute slices from 8 to 12 week old C57/Bl6 mice and lysed with […] including: 20 mM Tris-HCl, 150 mM NaCl, 5 mM EDTA, 10 mM NaF, 2 mM Na3VO4, 10 mM pyrophosphate, 0.1% SDS and 1% Triton after drug treatment. The β3 subunit was isolated using immunoprecipitation with β3 antibodies, after correction for protein content and the specific activity of labeling. Results were attained by SDS/PAGE followed by autoradiography (Abramian et al., 2010). For biotinylation experiments hippocampi were dissected out of acute slices from 8 to 12 week old C57/Bl6 mice and incubated in artificial cerebrospinal fluid (ACSF) described above at 30° C. for 1 h for recovery before experimentation. Slices were then placed on ice and incubated for 30 min with 1 mg/mL NHS-SS-biotin (Pierce). Excess biotin was removed by a 50 mM glycine quenching buffer, followed by washing of slices three times in ice-cold ACSF. The tissue was snap frozen on dry ice for 5 min, thawed at 4° C. and lysed. The lysates were solubilized with 2% Triton at 4° C. on a rotating wheel for 1 h. The insoluble material was removed by centrifugation, and 350-500 μg of protein lysate were incubated with NeutrAvidin beads (Pierce) for 18-24 h at 4° C. Bound material was eluted with sample buffer and subjected to SDS/PAGE and then immunoblotted with the indicated antibodies. Blots were then quantified using the CCD-based ChemiDoc XRS ? system. Antibodies against the β3 subunit and the phospho-β3 antibody were generated and verified by the laboratory of S.J.M. (Vien et al., 2015).
# Treatment of hippocampal slices with SGE-516 increased the phosphorylation of S408/9 measured using pS408/9 antibodies. To produce antibodies specific for phosphorylated S443, rabbits were injected with a synthetic peptide corresponding to residues […] of the murine α4 subunit in which the serine residue corresponding to S443 was chemically phosphorylated; […]. Hippocampal slices were treated with vehicle (Con), or SGE-516 for 20 min. Slices were immunoblotted with pS408/9, β3, or actin antibodies. The ratio of pS408/9/β3 immunoreactivity was then normalized to control slices (100%=the line).
# Hippocampal slices were treated with 100 nM ALLO or P4 (progesterone), and S408/9 phosphorylation was then determined as detailed above, n=4 slices (FIG. 18D). Hippocampal slices were treated with 100 nM ORG (FIG. 18E). S408/9 phosphorylation was examined using immunoblotting. […]
# [2] = tested on: dentate gyrus granule cells (DGGCs); type: cell-based, mouse; conditions: protocol as FIG. 3
# Procedure: Brain slices were prepared from 3- to 5-week-old male C57 mice. Mice were anesthetized with isoflurane, decapitated, and brains were rapidly removed and submerged in ice-cold cutting solution containing (mM): 126 NaCl, 2.5 KCl, 0.5 CaCl2, 2 MgCl2, 26 NaHCO3, 1.25 NaH2PO4, 10 glucose, 1.5 sodium pyruvate, and 3 kynurenic acid. Coronal 310 μm thick slices were cut with the vibratome VT1000S (Leica Microsystems, St Louis, Mo., USA). The slices were then transferred into incubation chamber filled with prewarmed (31-32° C.) oxygenated artificial cerebro-spinal fluid (ACSF) of the following composition (in mM): 126 NaCl, 2.5 KCl, 2 CaCl2, 2 MgCl2, 26 NaHCO3, 1.25 NaH2PO4, 10 glucose, 1.5 sodium pyruvate, 1 glutamine, 3 kynurenic acid and 0.005 GABA bubbled with 95% O2-5% CO2. Slices were allowed to recover at 32° C. for at least 1 hr before recording. Exogenous GABA was added in an attempt to standardize ambient GABA in the slice and provide an agonist source for newly inserted extrasynaptic GABAARs.
# After recovery, a single slice was transferred to a submerged, dual perfusion recording chamber (Warner Instruments, Hamden, Conn., USA) on the stage of an upright microscope (Nikon FN-1) with a 40× water immersion objective equipped with DIC/IR optics. Slices were maintained at 32° C. and gravity-superfused with ACSF solution throughout experimentation and perfused at rate of 2 ml/min with oxygenated (O2/CO2 95/5%) ACSF.
# Whole-cell currents were recorded from the dentate gyrus granule cells (DGGCs) in 310-μm-thick coronal hippocampal slices. Patch pipettes (5-7MΩ) were pulled from borosilicate glass (World Precision Instruments) and filled with intracellular solution of the composition (in mM) as follows: 140 CsCl, 1 MgCl2, 0.1 EGTA, 10 HEPES, 2 Mg-ATP, 4 NaCl and 0.3 Na-GTP (pH=7.2 with CsOH). A 5 min period for stabilization after obtaining the whole-cell recording conformation (holding potential of −60 mV) was allowed before currents were recorded using an Axopatch 200B amplifier (Molecular Devices), low-pass filtered at 2 kHz, digitized at 20 kHz (Digidata 1440A; Molecular Devices), and stored for offline analysis.
# For tonic current measurements, an all-points histogram was plotted for a 10 s period before and during 100 μM picrotoxin application, once the response reached a plateau level. Recordings with unstable baselines were discarded. Fitting the histogram with a Gaussian distribution gave the mean baseline current amplitude and the difference between the amplitudes before and during picrotoxin was considered to be the tonic current. The negative section of the all-points histogram which corresponds to the inward IPSCs was not fitted with a Gaussian distribution (Kretschmannova et al., 2013; Nusser and Mody, 2002). Series resistance and whole-cell capacitance were continually monitored and compensated throughout the course of the experiment. Recordings were eliminated from data analysis if series resistance increased by >20%. Spontaneous inhibitory post-synaptic currents (sIPSCs) were analyzed using the mini-analysis software (version 5.6.4; Synaptosoft, Decatur, Ga.). Minimum threshold detection was set to 3 times the value of baseline noise signal. To assess sIPSC kinetics, the recording trace was visually inspected and only events with a stable baseline, sharp rising phase, and single peak were used to negate artifacts due to event summation. Only recordings with a minimum of 200 events fitting these criteria were analyzed. sIPSCs amplitude, and frequency from each experimental condition was pooled and expressed as mean±SEM. To measure sIPSC decay, 100 consecutive events were averaged and the decay was fitted to a double exponential and the weighted decay constant (tw) was determined. Statistical analysis was performed by using Student t-test (paired and unpaired where appropriate), where p<0.05 is considered significant.
# [3] = tested on: GT1-7 cells; experiment: Immunoblot of β3 S408/9 phosphorylation in GT1-7 cells; type: cell-based; conditions: 100 nM, 15 min
# Procedure: GT1-7 cells that co-express mPRα and GABAARs were used to measure the level of phosphorylation at S408/9 position of β3 subunit. […] Expression of mPRα was confirmed using western blotting.
# GT1-7 cells were treated with 100 nM AllO or P4 for 15 min and immunoblotted with antibodies specifically recognizing β3, actin, and […] β3 subunit (pS408/9). The ratio of pS408/9 β3 subunit immunoreactivity were then normalized to levels seen in vehicle treated to controls, n=6.
# [4] = tested on: GT1-7 cells; experiment: Patch-clamp of GABA-induced currents (IGABA) in GT1-7 cells; type: cell-based; conditions: 100 nM in electrolyte, GABA EC20, 20 min time course
# Procedure: Patch-clamp recordings were made from GT1-7 cells. The magnitude of the GABA-induced currents (IGABA) at EC20 agonists concentration were then measured, in the presence of control electrolyte or that supplemented with 100 nM ALLO, or 100 nM ORG OD 02-0 over a time course of 20 min.
# [5] = tested on: GABAARs composed of α4β3 subunits; experiment: Acute modulation of IGABA in HEK-293 expressing GABAARs; type: cell-based; conditions: 100 mM (so in the source), rapidly applied with GABA
# [6] = biological target: T1, α4β3δ GABAA receptors (Homo sapiens, UniProt O14764+P28472+P48169); experiment: Whole-cell patch clamp: potentiation of GABA EC20 currents at recombinant α4β3δ GABAA receptors; type: cell-based; conditions: data not shown
# T1 construct: expressed in transfected cells; host or cells: CHO cells, transiently transfected (Lipofectamine)
# Procedure: Cellular electrophysiology was used to measure the pharmacological properties of ALLO, ganaxolone and SGE-516 in heterologous cell systems. Compounds were tested for their ability to affect GABA mediated currents at a submaximal agonist dose (GABA EC20=2 μM).
# LTK cells were stably transfected with the α1β2γ2 subunits of the GABA receptor and CHO cells are transiently transfected with the α4β3γ subunits via the Lipofecatamine method. Cells were passaged at a confluence of about 50-80% and then seeded onto 35 mm sterile culture dishes containing 2 ml culture complete medium without antibiotics or antimycotics. Cells were cultivated at a density that enabled the recording of single cells without visible connections to other cells.
# Whole-cell currents were measured with HEKA EPC-10 amplifiers using PatchMaster software. Bath solution for all experiments contained (in mM): NaCl 137, KCl 4, CaCl2 1.8, MgCl2 1, HEPES 10, D-Glucose 10, pH 7.4 with NaOH. Intracellular (pipette) solution contained (in mM): KCl 130, MgCl2 1, Mg-ATP 5, HEPES 10, EGTA 5, pH 7.2 with KOH. During experiments, cells and solutions were maintained at room temperature (19° C.-30° C.). For manual patchclamp recordings, cell culture dishes were placed on the dish holder of the microscope and continuously perfused (1 ml/min) with bath solution. After formation of a Gigaohm seal between the patch electrode and the cell (pipette resistance range: 2.5 MΩ-6.0MΩ; seal resistance range: >1 GΩ) the cell membrane across the pipette tip was ruptured to assure electrical access to the cell interior (whole-cell patch configuration).
# Cells were voltage-clamped at a holding potential of −80 mV. GABAA receptors were activated by 2 μM GABA and compounds were sequentially applied at increasing concentrations for 30 s prior to a 2 s application of GABA. GABA and compounds were applied to cells via the Dynaflow perfusion system (Cellectricon, Sweden). Test compounds were dissolved in DMSO to form 10 mM stock solution and serially diluted to 0.01, 0.1, 1, and 10 μM in bath solution. There was no effect on GABA currents when DMSO was applied to cells at its maximal concentration in solution (0.1%). All concentrations of test compound were tested on each cell. The relative percentage potentiation was defined as the peak amplitude in response to GABA EC20 in the presence of test compound divided by the peak amplitude in response to GABA EC20 alone, multiplied by 100.
# ALLO and ganaxolone are known PAMs of both synaptic and extrasynaptic GABAAR-mediated currents. The ability of candidate compound SGE-516 to act as a PAM was compared to ALLO and ganaxolone using the whole-cell recordings of recombinant human GABAA receptors expressed in mammalian cells. The α1β2γ2 or α4β3δ subunit combinations were chosen as representatives of typical synaptic and extrasynaptic GABAA receptors respectively. Similar to previous reports (Botella et al., 2015), ALLO, ganaxolone and SGE-516 allosterically potentiated currents induced by EC20 concentration of GABA in a concentration-dependent manner in both synaptic- and extrasynaptic-type GABAARs.
# [7] = tested on: dentate gyrus granule cells (DGGCs); conditions: Abramian et al., 2010, 2014; cited from earlier work
# T1 sequence (P48169 36-554): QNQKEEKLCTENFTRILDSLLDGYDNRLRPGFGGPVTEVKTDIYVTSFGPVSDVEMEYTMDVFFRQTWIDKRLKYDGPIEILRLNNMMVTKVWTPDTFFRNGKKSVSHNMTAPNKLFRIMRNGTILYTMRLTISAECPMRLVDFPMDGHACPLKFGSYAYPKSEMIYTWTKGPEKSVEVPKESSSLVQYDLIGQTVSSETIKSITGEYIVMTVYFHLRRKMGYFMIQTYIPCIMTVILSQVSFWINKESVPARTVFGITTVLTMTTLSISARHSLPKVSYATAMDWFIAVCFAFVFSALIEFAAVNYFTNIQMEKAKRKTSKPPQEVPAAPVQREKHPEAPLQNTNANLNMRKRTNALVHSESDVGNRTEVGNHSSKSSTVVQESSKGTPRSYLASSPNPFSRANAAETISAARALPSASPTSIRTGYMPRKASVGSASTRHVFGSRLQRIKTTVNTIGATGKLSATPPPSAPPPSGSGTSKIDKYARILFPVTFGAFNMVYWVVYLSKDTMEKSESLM
# T1 sequence (P28472 26-473): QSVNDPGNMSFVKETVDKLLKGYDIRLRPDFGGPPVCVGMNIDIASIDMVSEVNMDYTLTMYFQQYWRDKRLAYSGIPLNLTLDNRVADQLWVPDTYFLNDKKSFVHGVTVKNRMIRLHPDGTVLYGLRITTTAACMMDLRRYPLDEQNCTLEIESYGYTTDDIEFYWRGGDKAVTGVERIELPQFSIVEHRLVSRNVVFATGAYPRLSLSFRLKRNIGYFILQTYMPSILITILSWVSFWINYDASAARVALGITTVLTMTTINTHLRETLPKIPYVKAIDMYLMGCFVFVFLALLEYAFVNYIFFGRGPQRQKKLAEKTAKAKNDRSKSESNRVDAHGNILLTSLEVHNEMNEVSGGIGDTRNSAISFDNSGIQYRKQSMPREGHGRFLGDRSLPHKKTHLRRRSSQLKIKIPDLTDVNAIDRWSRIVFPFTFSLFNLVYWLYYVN
# T1 sequence (O14764 25-452): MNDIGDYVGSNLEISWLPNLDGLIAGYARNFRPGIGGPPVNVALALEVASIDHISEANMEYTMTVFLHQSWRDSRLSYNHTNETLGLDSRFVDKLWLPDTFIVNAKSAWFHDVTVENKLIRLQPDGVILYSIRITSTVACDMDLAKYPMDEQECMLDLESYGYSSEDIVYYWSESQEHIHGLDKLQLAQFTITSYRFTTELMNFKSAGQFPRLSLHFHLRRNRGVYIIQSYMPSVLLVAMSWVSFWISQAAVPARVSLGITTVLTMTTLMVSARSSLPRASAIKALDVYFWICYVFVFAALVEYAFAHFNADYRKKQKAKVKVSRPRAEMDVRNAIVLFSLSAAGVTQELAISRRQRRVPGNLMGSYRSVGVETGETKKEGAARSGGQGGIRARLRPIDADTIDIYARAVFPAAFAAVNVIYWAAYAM
smiles,measurement,setting,value
"CC(=O)[C@H]1CC[C@H]2[C@@H]3CCC4=CC(=O)CC[C@]4(C)[C@H]3CC[C@]12C [P4, Progesterone]",S408/9 phosphorylation in hippocampal slices (FIG. 18),[1],regulated
same,"amplitude and density of GABAergic tonic current, varying doses",[2],dosage-dependent effect
same,S408/9 phosphorylation in GT1-7 cells,[3],increase
C=C[C@]12CCC(=O)C=C1CCC1C2CC[C@@]2(C)C1CC[C@@H]2C(C)=O (stereo partly drawn) [ORG OD 02-0],GABA-evoked currents recorded from GT1-7 cells,[4],sustained increases
same,acute modulation of function of GABAARs composed of α4β3 subunits,[5],did not acutely modulate
same,S408/9 phosphorylation in hippocampal slices (FIG. 18),[1],regulated
same,"amplitude and density of GABAergic tonic current, varying doses",[2],dosage-dependent effect
CN1C(=O)CN=C(c2ccccc2)c2cc(Cl)ccc21 [diazepam],effect on GABA evoked currents in α4β3δ receptors,[6],did not alter
"C[C@]12CC[C@@H](O)C[C@H]1CC[C@@H]1[C@@H]2CC[C@]2(C)[C@@H](C(=O)CO)CC[C@@H]12 [THDOC, Tetrahydrodeoxycorticosterone]",sustained effect on GABAergic tonic current,[7],long lasting increase

# From US20230116196A1, “METHOD OF TREATING CNS DISORDERS WITH NEU[…] GABAERGIC COMPOUNDS” (priority 2017, published 2023)
